According to article PMC9386018, “A lymphatic-absorbed multi-targeted kinase inhibitor for myelofibrosis therapy” (Nature Communications, 2022):
“And” between values parts separate entries of the source, which are not always exact repeats. Identical values can stand only once.

Experiments:
[1] = test system: Caspase 3/7 activity in SET-2 cells; assay: SET-2 Caspase activation assay (Caspase-Glo 3/7); format: cell-based, human; conditions: 48 h; for Relative Caspase activation: normalized to vehicle, replicates
Description: Viable cells were counted by CellTiter-Fluor Assay (Promega) according to manufacturer’s protocol, and all fluorescence values were corrected by a no-cell control. For Caspase activation assays, SET-2 cells were cultured for 48 h at 10^6 cells mL^−1 with various concentration of LP-182 or vehicle (DMSO). Caspase activity was measured by Caspase-Glo 3/7 assay (Promega) according to the manufacturer’s protocol, and all luminescence values were corrected by a no-cell control. Dose response proliferation and Caspase activation data was normalized to vehicle treated control cells and analyzed by non-linear regression for determination of IC50 values. Data was generated from n = 3 independent experiments performed in replicate.

[2] = test system: pERK1/2 (pT202/pY204) in splenocytes; assay: MPL^W515L MF mouse model: pERK1/2 in splenocytes by flow cytometry; format: in vivo; conditions: MPL^W515L mice, oral 400 mg kg^−1 daily, 28 d
Description: (§1) The human megakaryoblastic cell line, SET-2 (ATCC), was maintained in RPMI 1640 supplemented with 20% FBS and incubated for 16 h at 10^6 cells mL^−1 with LP-182 or vehicle (DMSO; dimethyl sulfoxide), then washed in ice-cold PBS, and collected for flow cytometry analysis. Single-cell suspensions of mouse spleen were prepared from MPL^W515L MF mice (below) in RPMI 1640 supplemented with 5% FCS. Red blood cells were lysed by ammonium chloride-mediated red cell lysis (RCL) buffer and passed through a nylon mesh, and then cells were counted. For intracellular phospho-protein staining, SET-2 or spleen cells were fixed and then permeabilized using BD Phospho-flow fixation buffer and Perm-Buffer III (BD biosciences) according to the manufacturer’s protocol. Intracellular phospho-protein staining was performed using fluorochrome-conjugated antibodies, pAKT (pS473)-Alexa Fluor 647 (MB89-61) or pERK1/2 (pT202/pY204)-Alexa Fluor 647 (20 A). […] Flow cytometry was performed on a FACS Fortessa (Becton, Dickinson and Co.) using FACSDiVa software, and data analyzed using FlowJo software (Tree Star). […]
(§2) Generation of the MPL^W515L mutant MF mouse model was similar to previously described methods. […] Development of MF was evaluated by spleen volumes using MRI beginning ~14 d following bone marrow transplantation (BMT) as outlined below, continuing weekly until end of the study. […]

[3] = test system: MPL^W515L mouse model of myelofibrosis; assay: MPL^W515L MF mouse model: immune cell numbers in spleen; format: in vivo; conditions: MPL^W515L mice, oral 400 mg kg^−1 daily, 28 d
Description: as §1, §2

Q: Which results are given for O=C(NOCCOCCOCCOCCC(=O)N1CCN(c2cnc3ccc(-c4cnc(Cl)c(NS(=O)(=O)c5ccc(F)cc5)c4)cc3n2)CC1)c1ccc(F)c(F)c1Nc1ccc(I)cc1F [LP-182, N-(2-(2-(2-(3-(4-(7-(6-chloro-5-((4-fluorophenyl)sulfonamido)pyridin-3-yl)quinoxalin-2-yl)piperazin-1-yl)-3-oxopropoxy)ethoxy)ethoxy)ethoxy)-3,4-difluoro-2-((2-fluoro-4-iodophenyl)amino)benzamide]?
A: apoptotic cell death (Caspase activation) [1]: initiated apoptotic cell death; Relative Caspase activation ([1]; LP-182 5 µM): 1.094 and 1.105 and 1.123 and 1.124 and 1.108 and 1.081; Relative Caspase activation ([1]; LP-182 10 µM): 1.411 and 1.334 and 1.453 and 1.372 and 1.41 and 1.477; Relative Caspase activation ([1]; LP-182 20 µM): 1.934 and 1.9571 and 1.914 and 1.975 and 2.004 and 1.977; Relative Caspase activation ([1]; LP-182 40 µM): 2.054 and 1.793 and 2.072 and 2.115 and 2.193 and 2.206; active ERK1/2 level in splenocytes [2]: reduced active AKT and ERK1/2 levels to those comparable to healthy control mice; cell numbers of neutrophils (Neu) and megakaryocytes (MK) in the spleen [3]: decreased cell numbers
